US20250034579A1, “METHODS AND COMPOSITIONS FOR GENETICALLY MODIFYING HUMAN GUT MICROBES” (Cornell University, priority 2021, published 2025)

Key:
[1] = test system: Bacteroides and Erysipelotrichaceae microbes; experiment: Growth curve of bacteria in the presence of bile acids (OD600); type: cell-based; details: 500 μM bile acid, DMSO control; 2 Bacteroides, 7 Erysipelotrichaceae
Method: Bacteroides (Bacteroides fragilis 3112 (Bac1) and Bacteroides vulgatus ATCC 8482 (Bac2)) and Erysipelotrichaceae (Clostridium ramosum ATCC 25554 (Ery1), Erysipelatoclostridium ramosum strain 113-1 (Ery2), Clostridium ramosum DSM 24812 (Ery3), Clostridium ramosum DSM 1402 (Ery4), HM-173 Clostridium innocuum 6_1_30 (Ery5), Clostridium innocuum DSM 22910 (Ery6) and Holdemania filiformis DSM 12042 (Ery7)) were streaked from a glycerol stock onto TSAB agar plates and incubated anaerobically for ˜ 24 h at 37° C. Three colonies were inoculated into 1 ml of Mega broth and were anaerobically cultured for overnight at 37° C. Cells were diluted 1,000-fold into Mega broth to reach late-log phase. Then 5 μL of the culture was resuspended in 145 μL broth, loaded into a 96-well plated, and incubated anaerobically at 37° C. in Multiskan Sky Microplate Spectrophotometer (Thermo Fisher Scientific). Four bile acids (CA, 7-oxoCA, DCA, and 3-oxoDCA, 500 μM each) were tested with their solvent DMSO as control. Optical densities at 600 nm (OD600) were recorded every 60 min until the cultures reached the stationary phase. Bacterial growth curves were performed in triplicate with each biological replicate deriving from a single colony.

[2] = test system: Erysipelotrichaceae microbes; type: cell-based; details: in vitro consortium of 2 Bacteroides and 7 Erysipelotrichaceae; DCA at 0, 250 and 500 μM
[3] = test system: Bacteroidia (Prevotella and Bacteroides) microbes; experiment: Antibiotics test of Gram-negative Bacteroidia strains on agar plates; type: cell-based; details: 66 Bacteroidia strains; TSAB plates with 15 μg/mL thiamphenicol (or MICs)
[4] = SPF mice; drinking water with thiamphenicol 15 μg/ml and erythromycin 10 μg/ml

SMILES | resistance of Erysipelotrichaceae microbes versus Bacteroides microbes (growth curve) [1] | expansion of Erysipelotrichaceae microbes (relative fold change by qPCR) [2] | resistance against thiamphenicol [3] | accumulation of supplemented antibiotic in the feces [4] [pmol/mg]
C[C@H](CCC(=O)O)[C@H]1CC[C@H]2[C@@H]3CC[C@@H]4C[C@H](O)CC[C@]4(C)[C@H]3C[C@H](O)[C@]12C [DCA, deoxycholic acid] | more resistant | drives expansion | – | –
C[C@H](CCC(=O)O)[C@H]1CC[C@H]2[C@@H]3CC[C@@H]4CC(=O)CC[C@]4(C)[C@H]3C[C@H](O)[C@]12C [3-oxo DCA] | more resistant | – | – | –
CS(=O)(=O)c1ccc([C@@H](O)[C@@H](CO)NC(=O)C(Cl)Cl)cc1 [thiamphenicol] | – | – | not resistant | ~5
